{
  "source": "patent US20040204499A1",
  "about": "“Preparation for breast duct fluid collection” (priority 2000, published 2004)",
  "assay": "Clinical trial of breast ductal lavage with topical, subcutaneous and/or intraductal anesthesia; patient-recorded pain and post-procedure notes",
  "format": "in vivo, human",
  "experimental": "A clinical trial was conducted at several different clinical sites by several different physician practitioners. Sometimes the procedures were conducted by practitioners using topical application of anesthetic, subcutaneous anesthesia injection, sometimes using intraductal anesthesia infusion and sometimes all three. […] Apply EMLATM cream (topical anesthetic cream) to the nipple and areola as described in the package insert. […] Dekeratinize the nipple using gauze and a small amount of Omniprep® paste (dekeratinizing agent) or […] gel. Clean the nipple and areola with alcohol and gauze. […] Before attempting ductal catheterization, identify the ductal orifice under magnification, by using the breast aspirator and/or by gently squeezing on the nipple to yield discharge. Use of an incandescent lamp to warm the nipple may help relax the sphincter, thus making cannulation of the duct easier. […] Prepare the nipple and areola with a suitable disinfectant and perform nipple field block as needed. […] Open the catheter package. For intraductal administration of anesthetic, attach anesthetic syringe to inflow (i.e., lower) port and prime the tubing until fluid is expressed through the catheter body and outflow port; leave the syringe attached. […] Ensure that approximately 1 cm of the guidewire protrudes from the catheter tip. Under magnification assistance, if necessary, introduce the pre-seated guidewire/catheter unit into the desired ductal orifice to confirm the location and orientation of the duct. Advance the catheter gradually until the catheter is seated; remove the wire completely. […] Crimp the outflow tubing to prevent return of the anesthetic into the inflow tube. Administer approximately 1 cc of anesthetic through the inflow port (i.e., lower port). Administer more anesthetic as indicated. Disconnect the syringe and set aside for later use. Twist the plunger of a sterile 10 cc syringe to free the seal and attach the syringe to the outflow port. […] Connect saline filled syringe to the inflow (i.e., lower) port. The catheter is now ready for use. […] When Performing saline ductal lavage (i.e. fluid infusion and return): Crimp the outflow tubing to prevent early return into the outflow syringe. Using a 10 cc syringe filled with saline, gradually infuse saline in 0.5 cc increments, or until there is slight resistance or some discomfort (typically 2-3 mLs). Release the crimp on the outflow tubing. Massage the breast towards the nipple with both hands for 30 seconds, especially over the infused duct, taking care not to dislodge the catheter. Cloudy fluid and/or small air bubbles may collect in the catheter body, indicating fluid flow. Crimp the inflow tubing and apply suction to the outflow tubing. […]",
  "data": [
    {"smiles": "CCN(CC)CC(=O)Nc1c(C)cccc1C", "note": "[lidocaine]", "values": [
      {"measurement": "lavage pain, intraductal administration compared to subcutaneous injection of anesthetic", "setting": "conclusion drawn from Table I", "value": "no greater"},
      {"measurement": "pain upon intraductal administration of anesthetic", "setting": "in some cases, particularly practitioner RP", "value": "very low"},
      {"measurement": "post procedure notes", "setting": "patient feedback a day to two weeks after procedure, intraductal lidocaine only", "value": "pain"},
      {"measurement": "bruising", "setting": "practitioner PS, routine subcutaneous administration in a field block", "value": "highest amount of bruising"}
    ]}
  ]
}
